# In patent US20250241914A1, “BIFUNCTIONAL PHARMACEUTICAL COMPOUNDS” (DE MONTFORT UNIVERSITY, priority 2024, published 2025):
# Key:
# [1] = tested on: M. tuberculosis rifampicin resistant strain RpoBS522L (H37Rv); type: cell-based, Mycobacterium tuberculosis
# [2] = tested on: M. tuberculosis rifampicin-resistant strain RpoBS531L; type: cell-based, Mycobacterium tuberculosis
Structure (SMILES),"Mycobacterium tuberculosis strain MIC90, RpoBS522L H37Rv [1]","Mycobacterium tuberculosis strain MIC90, RpoBS531L [2]"
CO[C@H]1/C=C/O[C@@]2(C)Oc3c(C)c(O)c4c(O)c(c(CNCCCn5cc(CCn6cc(F)c(=O)[nH]c6=O)nn5)c(O)c4c3C2=O)NC(=O)/C(C)=C\C=C\[C@H](C)[C@H](C)[C@@H](C)[C@@H](O)[C@@H](C)[C@H](OC(C)=O)[C@@H]1C [Compound 3A],0.31 µM,0.22 µM
CO[C@H]1/C=C/O[C@@]2(C)Oc3c(C)c(O)c4c(O)c(c(CNCCOCCOCCOCn5cc(CCn6cc(F)c(=O)[nH]c6=O)nn5)c(O)c4c3C2=O)NC(=O)/C(C)=C\C=C\[C@H](C)[C@H](C)[C@@H](C)[C@@H](O)[C@@H](C)[C@H](OC(C)=O)[C@@H]1C [Compound 3B],0.32 µM,0.23 µM
CO[C@H]1/C=C/O[C@@]2(C)Oc3c(C)c(O)c4c(O)c(c(CNCCOCCOCCOCn5cc(CCCn6cc(F)c(=O)[nH]c6=O)nn5)c(O)c4c3C2=O)NC(=O)/C(C)=C\C=C\[C@H](C)[C@H](C)[C@@H](C)[C@@H](O)[C@@H](C)[C@H](OC(C)=O)[C@@H]1C [Compound 3C],0.47 µM,0.21 µM
"NNC(=O)c1ccncc1 [Isoniazid, reference compound]",0.29 µM,0.55 µM
